Experimental data as given in paper PMC3532939 (Biochemistry, 2012).

T1: SmPabB (Stenotrophomonas maltophilia, UniProt B2FR92)
T1 sequence (B2FR92 1-454): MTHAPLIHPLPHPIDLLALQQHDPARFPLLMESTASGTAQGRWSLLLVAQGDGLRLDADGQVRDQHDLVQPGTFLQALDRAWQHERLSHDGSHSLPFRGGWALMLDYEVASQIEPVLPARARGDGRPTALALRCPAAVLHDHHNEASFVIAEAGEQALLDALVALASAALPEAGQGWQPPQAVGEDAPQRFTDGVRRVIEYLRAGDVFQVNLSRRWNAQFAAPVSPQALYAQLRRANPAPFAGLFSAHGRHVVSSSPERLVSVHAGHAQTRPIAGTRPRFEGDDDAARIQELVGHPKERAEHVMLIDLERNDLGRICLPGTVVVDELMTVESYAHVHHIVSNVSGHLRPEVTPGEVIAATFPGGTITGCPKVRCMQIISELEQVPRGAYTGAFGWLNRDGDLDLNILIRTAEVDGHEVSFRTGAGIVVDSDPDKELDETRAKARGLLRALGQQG

T2: E. coli PabB (Escherichia coli, UniProt P05041)
T2 sequence (P05041 1-453): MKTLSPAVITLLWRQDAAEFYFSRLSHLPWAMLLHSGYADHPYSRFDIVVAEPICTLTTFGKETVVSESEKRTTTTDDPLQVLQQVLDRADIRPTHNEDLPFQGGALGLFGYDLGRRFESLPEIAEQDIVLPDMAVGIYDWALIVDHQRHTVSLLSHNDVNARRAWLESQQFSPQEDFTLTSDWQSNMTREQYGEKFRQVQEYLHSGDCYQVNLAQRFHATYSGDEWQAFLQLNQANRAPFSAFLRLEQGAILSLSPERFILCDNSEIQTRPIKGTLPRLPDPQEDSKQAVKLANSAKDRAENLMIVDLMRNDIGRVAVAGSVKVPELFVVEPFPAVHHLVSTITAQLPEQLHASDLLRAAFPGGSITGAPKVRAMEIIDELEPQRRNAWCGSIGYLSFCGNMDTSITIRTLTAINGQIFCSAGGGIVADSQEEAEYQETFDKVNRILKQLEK

T3: Stenotrophomonas maltophilia PabB (aminodeoxychorismate synthase) (Stenotrophomonas maltophilia, UniProt B2FR92 2-454)
T3 sequence: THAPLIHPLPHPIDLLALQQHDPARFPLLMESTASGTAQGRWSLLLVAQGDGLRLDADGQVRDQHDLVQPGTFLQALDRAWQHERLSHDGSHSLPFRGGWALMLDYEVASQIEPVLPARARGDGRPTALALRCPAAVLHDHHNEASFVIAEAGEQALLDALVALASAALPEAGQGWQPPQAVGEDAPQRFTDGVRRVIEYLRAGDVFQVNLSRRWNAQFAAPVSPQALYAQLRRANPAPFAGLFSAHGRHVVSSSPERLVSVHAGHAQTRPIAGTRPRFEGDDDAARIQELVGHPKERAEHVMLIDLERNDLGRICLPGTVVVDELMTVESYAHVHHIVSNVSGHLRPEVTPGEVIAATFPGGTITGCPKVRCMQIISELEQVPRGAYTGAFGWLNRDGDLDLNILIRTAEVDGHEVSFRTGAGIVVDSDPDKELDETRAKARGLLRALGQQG

T4: E. coli PabB (aminodeoxychorismate synthase) (E. coli, UniProt P05041 1-453)
T4 sequence: T2 sequence (P05041 1-453)

B1: E. coli PabA (glutamine amidotransferase subunit of aminodeoxychorismate synthase) (enzyme, UniProt P00903 1-187, looked up)
chain: MILLIDNYDSFTWNLYQYFCELGADVLVKRNDALTLADIDALKPQKIVISPGPCTPDEAGISLDVIRHYAGRLPILGVCLGHQAMAQAFGGKVVRAAKVMHGKTSPITHNGEGVFRGLANPLTVTRYHSLVVEPDSLPACFDVTAWSETREIMGIRHRQWDLEGVQFHPESILSEQGHQLLANFLHR

Key:
SmPabB = biological target: T1, SmPabB; test: isothermal titration calorimetry; format: binding
E. coli PabB = biological target: T2, E. coli PabB; test: LC/MS of bound ligand released from purified protein; format: binding; conditions: co-purified tryptophan; vestigial regulatory site
[1] = biological target: T3, Stenotrophomonas maltophilia PabB …; test: other fluorescence titration
[2] = biological target: T4, E. coli PabB (aminodeoxychorismate …); test: other fluorescence titration

Molecule	Kd (SmPabB)	LC/MS of bound ligand released from purified protein (E. coli PabB)	Kd [1]	Kd [2]
N[C@@H](Cc1c[nH]c2ccccc12)C(=O)O [tryptophan]	~11700 nM	E. coli PabB samples, as expected, contained tryptophan	–	–
B1	–	–	39 nM	109 nM
